Laboratory results as given in patent US12139520B2 (priority 2020, dated 2024).
pEC50: −log10 of the molar value. Numbered stars: 1 amine (or outer) side, 2 acyl side, 3 side chain; on linkers, the order of the positions; unused ones are H or OH. Bridge positions count the residues as written; N and C are the ends. Square brackets hold non-standard residues; d marks the D form. Peptide text beside a SMILES is read from it. * marks the point of attachment. C20 diacid = O=C(O)CCCCCCCCCCCCCCCCCCC(=O)*; γGlu = O=C(O)[C@H](CCC(=O)[*:2])N[*:1]; Hyp = O=C(O)[C@@H]1C[C@@H](O)CN1

Target: T1, hAMY3 receptor (Homo sapiens, UniProt O60896+P30988)
T1 sequence (P30988 25-474): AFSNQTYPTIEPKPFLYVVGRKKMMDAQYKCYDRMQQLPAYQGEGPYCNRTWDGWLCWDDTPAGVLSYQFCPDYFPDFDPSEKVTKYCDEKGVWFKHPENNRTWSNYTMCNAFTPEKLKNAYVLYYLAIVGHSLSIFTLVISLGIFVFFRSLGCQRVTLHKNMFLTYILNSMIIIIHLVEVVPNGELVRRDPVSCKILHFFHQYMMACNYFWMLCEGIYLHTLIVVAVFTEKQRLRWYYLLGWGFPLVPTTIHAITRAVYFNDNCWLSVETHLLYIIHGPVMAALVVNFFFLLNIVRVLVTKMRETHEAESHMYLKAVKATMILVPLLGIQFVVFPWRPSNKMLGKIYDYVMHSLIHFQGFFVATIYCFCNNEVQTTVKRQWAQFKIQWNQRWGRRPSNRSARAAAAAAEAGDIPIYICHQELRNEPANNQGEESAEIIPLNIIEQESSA
T1 sequence (O60896 24-148 partner): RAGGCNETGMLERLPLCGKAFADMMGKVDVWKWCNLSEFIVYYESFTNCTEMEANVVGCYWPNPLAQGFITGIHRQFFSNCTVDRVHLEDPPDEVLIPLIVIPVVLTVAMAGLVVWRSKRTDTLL
Test: cAMP assay for in vitro receptor activation, hAMY3-R
Type: cell-based
Conditions: cAMP assay, hAMY3 receptor; read-out: hAMY3R EC50
Protocol: General Protocols for cAMP Assays for Measuring In Vitro Receptor Activation
Cells stably overexpressing the hAMY3 receptor were obtained from Ogeda (now Astellas Pharma), sub-cloned and a monoclonal cell-line with an appropriate assay-window was expanded, aliquoted and frozen.
An aliquot was thawed and plated in DPBS with 0.05% casein and 0.5 mM IBMX as 2000 cells/well in a 384-well format. The cells were then immediately stimulated for 30 min at room temperature with graded doses of test compound using human amylin (Bachem, cat no. H-7905) as a positive control. cAMP accumulation was measured using a Cisbio assay for Gs coupled receptors (cat. no. 62AM4PEC), where the assay reagents were added as per the manufacturer's instructions and time-resolved fluorescence energy transfer recorded after one hour.

SMILES | pEC50
CC(C)C[C@H](NC(=O)[C@H](CCCNC(=N)N)NC(=O)[C@H](CCC(N)=O)NC(=O)[C@@H](NC(=O)[C@@H](NC(=O)[C@@H]1CSSC[C@H](NC(=O)CN)C(=O)N[C@@H](CCCNC(=N)N)C(=O)N[C@@H](Cc2ccccc2)C(=O)NCC(=O)N[C@@H]([C@@H](C)O)C(=O)N1)[C@@H](C)O)C(C)C)C(=O)N[C@@H](C)C(=O)N[C@@H](CC(N)=O)C(=O)N[C@@H](Cc1ccccc1)C(=O)N[C@@H](CC(C)C)C(=O)N[C@@H](Cc1ccc(O)cc1)C(=O)N[C@@H](CCC(N)=O)C(=O)N[C@@H](Cc1ccccc1)C(=O)N[C@H](C(=O)N[C@@H](CC(=O)O)C(=O)N[C@@H](CCCCN)C(=O)N[C@@H](CC(=O)O)C(=O)N[C@@H](CCCCN)C(=O)N[C@@H](CC(=O)O)C(=O)N[C@@H](CC(N)=O)C(=O)N[C@H](C(=O)N[C@@H](C)C(=O)N1CCC[C@H]1C(=O)N[C@@H](CCCNC(=N)N)C(=O)N[C@H](C(=O)N[C@@H](CC(N)=O)C(=O)N[C@H](C(=O)NCC(=O)N1CCC[C@H]1C(=O)N[C@@H](CCC(N)=O)C(=O)NCC(=O)N[C@@H](Cc1ccc(O)cc1)C(N)=O)C(C)C)[C@@H](C)O)C(C)C)[C@@H](C)O [compound 16] (H-GCRFGTCTVQRLANFLYQFTDKDKDNVAPRTNVGPQGY-NH2; disulfide 2-7) | 11.10
CC[C@H](C)[C@H](NC(=O)[C@H](CCC(N)=O)NC(=O)[C@H](Cc1c[nH]cn1)NC(=O)[C@H](C)NC(=O)[C@H](CC(C)C)NC(=O)[C@H](CCCNC(=N)N)NC(=O)[C@H](CCC(N)=O)NC(=O)[C@@H](NC(=O)[C@@H](NC(=O)[C@@H]1CSSC[C@H](NC(=O)[C@@H](N)CCCCN)C(=O)N[C@@H](CC(N)=O)C(=O)N[C@@H](Cc2ccccc2)C(=O)N[C@@H](C)C(=O)N[C@@H]([C@@H](C)O)C(=O)N1)[C@@H](C)O)C(C)C)C(=O)N[C@@H](Cc1ccc(O)cc1)C(=O)N[C@@H](CCC(N)=O)C(=O)N[C@@H](Cc1ccccc1)C(=O)N[C@H](C(=O)N[C@@H](CC(=O)O)C(=O)N[C@@H](CCCCN)C(=O)N[C@@H](CC(=O)O)C(=O)N[C@@H](CCCCN)C(=O)N[C@@H](CC(=O)O)C(=O)N[C@@H](CC(N)=O)C(=O)N[C@H](C(=O)N[C@@H](C)C(=O)N1CCC[C@H]1C(=O)N[C@@H](CCCNC(=N)N)C(=O)N[C@H](C(=O)N[C@@H](CCC(=O)O)C(=O)N[C@H](C(=O)NCC(=O)N[C@@H](CO)C(=O)N[C@@H](CC(N)=O)C(=O)NCC(=O)N1C[C@H](O)C[C@H]1C(N)=O)C(C)C)[C@@H](C)O)C(C)C)[C@@H](C)O [compound 17] (H-KCNFATCTVQRLAHQIYQFTDKDKDNVAPRTEVGSNG[Hyp]-NH2; disulfide 2-7; N-terminus assumed) | 11.10
CC[C@H](C)[C@H](NC(=O)[C@H](CCC(N)=O)NC(=O)[C@H](Cc1c[nH]cn1)NC(=O)[C@H](C)NC(=O)[C@H](CC(C)C)NC(=O)[C@H](CCCNC(=N)N)NC(=O)[C@H](CCC(N)=O)NC(=O)[C@@H](NC(=O)[C@@H](NC(=O)[C@@H]1CSSC[C@H](NC(=O)[C@@H](N)CCCCN)C(=O)N[C@@H](CC(N)=O)C(=O)N[C@@H](Cc2ccccc2)C(=O)N[C@@H](C)C(=O)N[C@@H]([C@@H](C)O)C(=O)N1)[C@@H](C)O)C(C)C)C(=O)N[C@@H](Cc1ccc(O)cc1)C(=O)N[C@@H](CCC(N)=O)C(=O)N[C@@H](Cc1ccccc1)C(=O)N[C@H](C(=O)N[C@@H](CC(=O)O)C(=O)N[C@@H](CCCCN)C(=O)N[C@@H](CC(=O)O)C(=O)N[C@@H](CCCCN)C(=O)N[C@@H](CC(=O)O)C(=O)N[C@@H](CC(N)=O)C(=O)N[C@H](C(=O)N[C@@H](C)C(=O)N1CCC[C@H]1C(=O)N1CCC[C@H]1C(=O)N[C@H](C(=O)N[C@@H](CCC(=O)O)C(=O)N[C@H](C(=O)NCC(=O)N[C@@H](CO)C(=O)N[C@@H](CC(N)=O)C(=O)NCC(=O)N1CCC[C@H]1C(N)=O)C(C)C)[C@@H](C)O)C(C)C)[C@@H](C)O [compound 18] (H-KCNFATCTVQRLAHQIYQFTDKDKDNVAPPTEVGSNGP-NH2; disulfide 2-7) | 11.10
CC[C@H](C)[C@H](NC(=O)[C@H](CCC(N)=O)NC(=O)[C@H](Cc1c[nH]cn1)NC(=O)[C@H](C)NC(=O)[C@H](CC(C)C)NC(=O)[C@H](CCCNC(=N)N)NC(=O)[C@H](CCC(N)=O)NC(=O)[C@@H](NC(=O)[C@@H](NC(=O)[C@@H]1CSSC[C@H](NC(=O)[C@@H](N)CCCCN)C(=O)N[C@@H](CC(N)=O)C(=O)N[C@@H]([C@@H](C)O)C(=O)N[C@@H](C)C(=O)N[C@@H]([C@@H](C)O)C(=O)N1)[C@@H](C)O)C(C)C)C(=O)N[C@@H](Cc1ccc(O)cc1)C(=O)N[C@@H](CCC(N)=O)C(=O)N[C@@H](Cc1ccccc1)C(=O)N[C@H](C(=O)N[C@@H](CC(=O)O)C(=O)N[C@@H](CCCCN)C(=O)N[C@@H](CC(=O)O)C(=O)N[C@@H](CCCCN)C(=O)N[C@@H](CC(=O)O)C(=O)N[C@@H](CC(N)=O)C(=O)N[C@H](C(=O)N[C@@H](C)C(=O)N1CCC[C@H]1C(=O)N[C@@H](CCCNC(=N)N)C(=O)N[C@H](C(=O)N[C@@H](CCCCN)C(=O)N[C@H](C(=O)NCC(=O)N[C@@H](CO)C(=O)N[C@@H](CC(N)=O)C(=O)NCC(=O)N[C@@H](Cc1ccc(O)cc1)C(N)=O)C(C)C)[C@@H](C)O)C(C)C)[C@@H](C)O [compound 34] (H-KCNTATCTVQRLAHQIYQFTDKDKDNVAPRTKVGSNGY-NH2; disulfide 2-7; N-terminus assumed) | 11.05
CC[C@H](C)[C@H](NC(=O)[C@H](CCC(N)=O)NC(=O)[C@H](Cc1ccc(O)cc1)NC(=O)[C@H](C)NC(=O)[C@H](CC(C)C)NC(=O)[C@H](CCCNC(=N)N)NC(=O)[C@H](CCC(N)=O)NC(=O)[C@@H](NC(=O)[C@@H](NC(=O)[C@@H]1CSSC[C@H](NC(=O)[C@H](CCCCN)NC(=O)CC[C@H](NC(=O)CCCCCCCCCCCCCCCCCCC(=O)O)C(=O)O)C(=O)N[C@@H](CC(N)=O)C(=O)N[C@@H]([C@@H](C)O)C(=O)N[C@@H](C)C(=O)N[C@@H]([C@@H](C)O)C(=O)N1)[C@@H](C)O)C(C)C)C(=O)N[C@@H](Cc1ccc(O)cc1)C(=O)N[C@@H](CCC(N)=O)C(=O)N[C@@H](Cc1ccccc1)C(=O)N[C@H](C(=O)N[C@@H](CC(=O)O)C(=O)N[C@@H](CCCCN)C(=O)N[C@@H](CC(=O)O)C(=O)N[C@@H](CCCCN)C(=O)N[C@@H](CC(=O)O)C(=O)N[C@@H](CC(N)=O)C(=O)N[C@H](C(=O)N[C@@H](C)C(=O)N1CCC[C@H]1C(=O)N1CCC[C@H]1C(=O)N[C@H](C(=O)N[C@@H](CC(N)=O)C(=O)N[C@H](C(=O)NCC(=O)N[C@@H](CO)C(=O)N[C@@H](CC(N)=O)C(=O)NCC(=O)N1C[C@H](O)C[C@H]1C(N)=O)C(C)C)[C@@H](C)O)C(C)C)[C@@H](C)O [compound 47] ({C20 diacid-γGlu}-KCNTATCTVQRLAYQIYQFTDKDKDNVAPPTNVGSNG[Hyp]-NH2; disulfide 2-7) | 10.96
CC[C@H](C)[C@H](NC(=O)[C@H](CCC(N)=O)NC(=O)[C@H](Cc1c[nH]cn1)NC(=O)[C@H](C)NC(=O)[C@H](CC(C)C)NC(=O)[C@H](CCCNC(=N)N)NC(=O)[C@H](CCC(N)=O)NC(=O)[C@@H](NC(=O)[C@@H](NC(=O)[C@@H]1CSSC[C@H](NC(=O)[C@H](CCCCN)NC(=O)CC[C@H](NC(=O)CCCCCCCCCCCCCCCCCCC(=O)O)C(=O)O)C(=O)N[C@@H](CC(N)=O)C(=O)N[C@@H]([C@@H](C)O)C(=O)N[C@@H](C)C(=O)N[C@@H]([C@@H](C)O)C(=O)N1)[C@@H](C)O)C(C)C)C(=O)N[C@@H](Cc1ccc(O)cc1)C(=O)N[C@@H](CCC(N)=O)C(=O)N[C@@H](Cc1ccc(O)cc1)C(=O)N[C@H](C(=O)N[C@@H](CC(=O)O)C(=O)N[C@@H](CCCCN)C(=O)N[C@@H](CC(=O)O)C(=O)N[C@@H](CCCCN)C(=O)N[C@@H](CC(=O)O)C(=O)N[C@@H](CC(N)=O)C(=O)N[C@H](C(=O)N[C@@H](C)C(=O)N1CCC[C@H]1C(=O)N1CCC[C@H]1C(=O)N[C@H](C(=O)N[C@@H](CC(N)=O)C(=O)N[C@H](C(=O)NCC(=O)N[C@@H](CO)C(=O)N[C@@H](CC(N)=O)C(=O)NCC(=O)N1C[C@H](O)C[C@H]1C(N)=O)C(C)C)[C@@H](C)O)C(C)C)[C@@H](C)O [compound 48] ({C20 diacid-γGlu}-KCNTATCTVQRLAHQIYQYTDKDKDNVAPPTNVGSNG[Hyp]-NH2; disulfide 2-7) | 10.96
